One assay concerns IL-1β. Description: Gene expression profile using RTQ-PCR: IL-1β. The format is cell-based, human. Conditions: 3 μM. As to the method:
(§1) The effect of the compound of example 7 was measured in stimulated untreated cells from the monocytic cell line (THP-1), human monocytes and synovial cells from rheumatoid arthritis patient. The effect of the compound in the THP-1 cell line was measured in terms of gene expression and was expressed as fold changes as compared to the cell stimulated control with no drug treatment.
(§2) THP-1 cells, human monocytes and synovial cells were treated with compound of example 7 or vehicle (0.5% DMSO). Total RNA isolation using a commercial RNA extraction kit (Qiagen Corporation, Germany) The first-strand cDNA was synthesized from total RNA using first strand cDNA synthesis kit from Invitrogen Corporation (California, USA). This was followed by real time quantitative polymerase chain reaction (RTQ PCR) using gene specific primers and standard thermal program of initial denaturation at 95° C. for 5 min and cycles of 95° C. for 10 seconds, followed by 60° C. for 30 seconds (Realplex PCR machine from Eppendorf, Germany). Quantitative measurement of products made during PCR cycles was normalized against a housekeeping gene (Actin) and was used to measure the gene expression as fold changes as compared to respective control.

The subject of a further assay is IFN-γ. Description: Concanavalin-A-induced IFN-γ production from hPBMC. The format is cell-based. Conditions: Homo sapiens; Con-A-induced production from hPBMCs, 18 h. As to the method: Peripheral blood mononuclear cells (hPBMC) were harvested using Ficoll-Hypaque density gradient centrifugation (1.077 g/mL; Sigma Aldrich). hPBMCs were resuspended in RPMI 1640 culture medium (Gibco BRL, Pasley, UK) containing 10% FCS, 100 U/mL penicillin (Sigma Chemical Co. St Louis, Mo.) and […] streptomycin (Sigma Chemical Co. St Louis, Mo.) at 1×10^6 cells/mL. 1×10^5 hPBMCs/well were pre-treated with test compound or 0.5% DMSO (carrier control) for 30 min at 37° C. Subsequently, these cells were stimulated with 1 μg/mL concanavalin A (Sigma Chemical Co., St. Louis, Mo.). Following 18 h incubation at 37° C., supernatants were collected and stored at −70° C. until assayed for human IFN-γ by ELISA as described by the manufacturer (OptiEIA ELISA sets, BD BioSciences). In each experiment, cyclosporin (1 μM) was used as a positive control for inhibiting induced IFN-γ production.

A further assay relates to CEBPα. Briefly: Gene expression profile using RTQ-PCR: CEBPα. In kind it is cell-based, human. Conditions: 3 μM. As to the method: as §1, §2
The next assay concerns IL-8. Description: Synovial tissue assay (spontaneous production): IL-8. The format is cell-based. Conditions: Homo sapiens, synovial tissue cells from rheumatoid arthritis patients, 16 h, read-out: IC50 of IL-8 inhibition. The source says: The ability of compounds of the present invention to inhibit spontaneous production of cytokines from freshly isolated human synovial tissue cells was designed as in reference, Lancet, 29, 244-247, (1989) the disclosure of which is incorporated by reference for the teaching of the assay.
Synovial tissue was obtained from rheumatoid arthritis patients undergoing knee replacement surgery. […] Subsequently, the cells were washed 3 times with RPMI 1640 culture medium and resuspended in complete medium (RPMI 1640 culture medium supplemented with 5% FBS and 5% human serum-AB+(Sigma, USA) at a concentration of 1×10^6 cells/mL. The viability of synovial cells was determined by trypan blue dye exclusion and was uniformly ≧98%. For the experiment, 100 μL of cell suspension was added to the wells of a 96-well culture plate (Nunc, USA). Following cell plating, 100 μL of the culture medium and 1 μL of various concentrations of the test compound (test compound was dissolved in DMSO to obtain a stock solution of 20 mM. […] The IC50 values were calculated by a nonlinear regression method using the GraphPad software (Prism 3.03).

The mark [1] stands for this setting: Human monocytes, 3 h, ± SE, N = 3.

The record followed here is patent US20120225889A1, “USE OF MACROCYCLIC LACTONE DERIVATIVES FOR THE TREATMENT OF INFLAMMATORY DISORDERS” (PIRAMAL LIFE SCIENCES LIMITED, priority 2010, published 2012).

By IC50 is commonly meant the concentration at which inhibition is half-maximal. In the case of `C/C=C/C(O)C(C)/C=C/C(=N\O)C(C)C(O)C(C)C1OC(=O)/C(OC)=C/C(C)=C/C(C)C(O)C(CC)C(O)C(C)C/C(C)=C/C=C/C1OC` (centres unmarked) [Compound of example 7, (3Z,5E,13E,15E)-18-((5Z,6E,10E)-3,9-Dihydroxy-5-(hydroxymino)-4,8-dimethyldodeca-6,10-dien-2-yl)-9-ethyl-8,10-dihydroxy-3,17-dimethoxy-5,7,11,13-tetramethyl oxacyclooctadeca-3,5,13,15-tetraen-2-one], the IL-1β gene expression in the assay with IL-1β (setting [1]) is on record as −4.0 log fold change; in the assay on IL-1β (Synovial cells, 12 h, N = 1) it was −0.3 log fold change; in the assay on IL-1β (THP-1 cells, 12 h, ± SE, N = 3) it was −0.6 + 0.7 log fold change. The values for the 50% inhibitory concentration (IC50) in the assay on IFN-γ and in the assay on IL-8 were 0.2 µM and 1300 nM, respectively. In addition, the CEBPα gene expression is −3.9 + 0.4 log fold change in the assay with CEBPα (setting [1]); −2.4 log fold change in the assay with CEBPα (Synovial cells, 12 h, N = 1); −2.1 + 2.2 log fold change in the assay on CEBPα (THP-1 cells, 12 h, ± SE, N = 3).
